Measurements from patent US12209252B2, “Transduction buffer” (Koninklijke Nederlandse Akademie van Wetenschappen, priority 2015, dated 2025).

How the values were obtained:
[1] = system: KBM7 cells carrying an out-of-frame tdTomato reporter; test: Effect of carbohydrate supplements on Cas9/sgRNA transduction (tdTomato reporter); type: cell-based; settings: carbohydrate 0.8% w/v, 40 minutes, 327 mM NaCl, 200 mM GABA, read two days after
Method: (§1) KBM7 cells carrying an out-of-frame tdTomato reporter were transduced for 40 minutes with recombinant Cas9 protein and sgRNA targeting the out-of-frame region in the tdTomato reporter. Transductions were carried out in 1× iTOP transduction buffer, supplemented with 327 mM NaCl and 200 mM GABA. Indicated carbohydrates were added at 0.8% w/v final concentration. Two days after transduction, tdTomato fluorescence was determined by flow cytometry analysis.
as §1, with “The effect of various carbohydrates on transduction efficiency was tested in the iTOP buffer. KBM7” for “KBM7”, “carbohydrates (sorbitol, lactulose, sucrose, trehalose and myo-inositol)” for “carbohydrates”, “analysis. Higher levels of tdTomato fluorescence were indicative of greater transduction efficiency.” for “analysis.”

[2] = 700 mOsm/Kg, non-salt compound alone; previously tested (WO2015/028969); cited from earlier work
[3] = system: sodium-hydrogen antiporter (Nhe) proteins; test: Inhibition of protein transduction by Na+/H+ exchange inhibitors; type: cell-based
Description: Without wishing to be bound by theory, the inventors hypothesise that activation of such Nhe transporters leads to activation of the macropinocytosis pathway, which is the first step in the transduction process. Thus, in some embodiments, the salt is any salt able to bind to and/or activate a sodium/hydrogen (Na+/H+) transporter, such as an Nhe transporter, for example an Nhe1 transporter. Nhe1 is a ubiquitous membrane-bound enzyme involved in volume- and pH-regulation of vertebrate cells.

MEFs = test: BrdU incorporation 24 hrs after beta-lactamase transduction; type: cell-based, mouse; settings: see FIGS. 6A-6D
Method: Third column: Relative β-lactamase protein transduction activity; Fourth column: Relative BrdU incorporation 24 hrs after β-lactamase transduction. MEFs were transduced for 3 hours with 1 μM β-lactamase protein at a NaCl adjusted osmolality of 700 mOsm/Kg in transduction buffer containing 30 mM of Glycerol and 15 mM of Glycine and 25 mM of the indicated transduction compounds. β-lactamase incorporation of the reference compound (NDSB201, #01) was set at 100%. Open circles indicate relative BrdU incorporation by the transduced cells. BrdU incorporation of untransduced cells was set at 100% and BrdU incorporation of mitomycin C-treated cells was set at 0%.

Structure (SMILES) | transduction efficiency (tdTomato fluorescence, in words) [1] | induction of protein transduction [2] | other results
OC[C@H]1O[C@H](O[C@H]2O[C@H](CO)[C@@H](O)[C@H](O)[C@H]2O)[C@H](O)[C@@H](O)[C@@H]1O [trehalose] | greatest improvement |  | 
OC[C@H]1O[C@@H](O[C@@H]2[C@@H](CO)OC(O)(CO)[C@H]2O)[C@H](O)[C@@H](O)[C@H]1O (mixture of isomers) [lactulose] | closely followed | failed to induce protein transduction | 
O[C@H]1[C@H](O)[C@@H](O)[C@H](O)[C@@H](O)[C@H]1O [myo-inositol] | closely followed |  | 
OC[C@@H](O)[C@@H](O)[C@H](O)[C@H](O)CO [mannitol] |  | failed to induce protein transduction | 
CCN(c1nc(N)c(C(=O)NC(=N)N)nc1Cl)C(C)C [EIPA] |  |  | inhibition of protein transduction [3]: strongly inhibited
OC[C@@H](O)[C@@H](O)[C@H](O)[C@@H](O)CO [sorbitol] | greatest improvement | failed to induce protein transduction | 
NCCCC(=O)O [#20] |  |  | cell viability / proliferation / survival (in words) (MEFs): particularly good cell survival rates
CN(C)c1nc(N)c(C(=O)N=C(N)N)nc1Cl [DMA] |  |  | inhibition of protein transduction [3]: strongly inhibited
OC[C@H]1O[C@@](CO)(O[C@H]2O[C@H](CO)[C@@H](O)[C@H](O)[C@H]2O)[C@@H](O)[C@@H]1O [sucrose] | improve transduction efficiency | failed to induce protein transduction | 
